This note sets out measurements from ChEMBL document CHEMBL5442175, “EUbOPEN Chemogenomics Library - PDSP Secondary Binding” (2024).

The target in assay [1] is T1, Alpha-1B adrenergic receptor (Homo sapiens, UniProt P35368).
T1 sequence (P35368 whole entry): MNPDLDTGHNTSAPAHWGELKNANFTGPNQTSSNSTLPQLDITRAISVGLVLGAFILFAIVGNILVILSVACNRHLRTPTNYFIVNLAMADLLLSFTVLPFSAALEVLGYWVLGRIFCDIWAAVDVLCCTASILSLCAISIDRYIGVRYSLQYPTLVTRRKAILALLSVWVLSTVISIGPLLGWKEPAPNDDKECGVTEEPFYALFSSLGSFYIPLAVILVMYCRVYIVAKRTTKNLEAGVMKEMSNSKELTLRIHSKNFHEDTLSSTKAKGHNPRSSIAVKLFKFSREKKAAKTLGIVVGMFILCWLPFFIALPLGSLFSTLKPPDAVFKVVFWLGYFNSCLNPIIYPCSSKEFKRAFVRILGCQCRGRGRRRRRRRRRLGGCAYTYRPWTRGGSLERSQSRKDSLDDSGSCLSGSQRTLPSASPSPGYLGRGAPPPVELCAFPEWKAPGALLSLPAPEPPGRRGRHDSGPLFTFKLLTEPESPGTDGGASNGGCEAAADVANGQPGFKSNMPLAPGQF
The experiment in a line: PDSP Secondary Binding target: ADRA1B - Compounds are tested at 10 uM concentration, plate are incubated at room temperature in the dark for 90 minutes. Reaction are stopped by vacuum filtration onto 0.3% polyethyleneimine soaked filter mats using Filtermate harvester. Scintillation cocktail is then melted onto microwave-dried filters on a hot plate and the radio activity is counted in Microbia counter.

The target in assay [2] is 5-hydroxytryptamine receptor 2B (Homo sapiens, UniProt P41595). As to the kind of experiment: PDSP Secondary Binding target: HTR2B - Compounds are tested at 10 uM concentration, plate are incubated at room temperature in the dark for 90 minutes. Reaction are stopped by vacuum filtration onto 0.3% polyethyleneimine soaked filter mats using Filtermate harvester. Scintillation cocktail is then melted onto microwave-dried filters on a hot plate and the radio activity is counted in Microbia counter.
Sequence of 5-hydroxytryptamine receptor 2B (P41595 whole entry): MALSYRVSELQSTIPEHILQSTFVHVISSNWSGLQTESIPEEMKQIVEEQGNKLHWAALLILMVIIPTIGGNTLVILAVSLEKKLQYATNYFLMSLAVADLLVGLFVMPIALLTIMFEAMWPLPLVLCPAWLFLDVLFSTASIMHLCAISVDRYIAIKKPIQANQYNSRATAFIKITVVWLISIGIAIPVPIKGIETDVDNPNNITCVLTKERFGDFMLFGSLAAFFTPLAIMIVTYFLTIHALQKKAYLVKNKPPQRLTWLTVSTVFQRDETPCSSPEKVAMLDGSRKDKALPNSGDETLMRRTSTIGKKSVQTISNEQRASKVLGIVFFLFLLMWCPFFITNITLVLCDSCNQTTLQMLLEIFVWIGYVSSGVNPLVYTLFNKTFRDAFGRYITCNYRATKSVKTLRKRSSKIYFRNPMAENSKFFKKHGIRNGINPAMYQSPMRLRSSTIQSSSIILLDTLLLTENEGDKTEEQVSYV

Assay [3] deals with Kappa-type opioid receptor (Homo sapiens, UniProt P41145). As to the kind of experiment: PDSP Secondary Binding target: OPRK1 - Compounds are tested at 10 uM concentration, plate are incubated at room temperature in the dark for 90 minutes. Reaction are stopped by vacuum filtration onto 0.3% polyethyleneimine soaked filter mats using Filtermate harvester. Scintillation cocktail is then melted onto microwave-dried filters on a hot plate and the radio activity is counted in Microbia counter.
Sequence of Kappa-type opioid receptor (P41145 whole entry): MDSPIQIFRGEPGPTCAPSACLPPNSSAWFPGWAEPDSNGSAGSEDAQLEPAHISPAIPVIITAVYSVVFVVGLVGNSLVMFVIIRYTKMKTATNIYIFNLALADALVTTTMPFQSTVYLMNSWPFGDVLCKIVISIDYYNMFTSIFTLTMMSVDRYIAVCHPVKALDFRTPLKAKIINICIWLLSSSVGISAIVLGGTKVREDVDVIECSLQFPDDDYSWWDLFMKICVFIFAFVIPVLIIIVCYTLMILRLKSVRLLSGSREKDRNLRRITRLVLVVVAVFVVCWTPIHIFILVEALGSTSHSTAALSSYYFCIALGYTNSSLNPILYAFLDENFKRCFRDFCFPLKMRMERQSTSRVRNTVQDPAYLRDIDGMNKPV

The target of assay [4] is Translocator protein (Homo sapiens, UniProt P30536). As to the kind of experiment: PDSP Secondary Binding target: TSPO - Compounds are tested at 10 uM concentration, plate are incubated at room temperature in the dark for 90 minutes. Reaction are stopped by vacuum filtration onto 0.3% polyethyleneimine soaked filter mats using Filtermate harvester. Scintillation cocktail is then melted onto microwave-dried filters on a hot plate and the radio activity is counted in Microbia counter.
Sequence of Translocator protein (P30536 whole entry): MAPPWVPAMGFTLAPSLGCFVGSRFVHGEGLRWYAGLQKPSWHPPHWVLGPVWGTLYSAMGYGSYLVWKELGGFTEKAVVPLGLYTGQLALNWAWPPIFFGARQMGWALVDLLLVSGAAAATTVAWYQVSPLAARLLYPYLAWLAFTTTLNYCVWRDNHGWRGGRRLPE

In assay [5] the target is Sigma non-opioid intracellular receptor 1 (Homo sapiens, UniProt Q99720). The experiment in a line: PDSP Secondary Binding target: SIGMAR1 - Compounds are tested at 10 uM concentration, plate are incubated at room temperature in the dark for 90 minutes. Reaction are stopped by vacuum filtration onto 0.3% polyethyleneimine soaked filter mats using Filtermate harvester. Scintillation cocktail is then melted onto microwave-dried filters on a hot plate and the radio activity is counted in Microbia counter.
Sequence of Sigma non-opioid intracellular receptor 1 (Q99720 whole entry): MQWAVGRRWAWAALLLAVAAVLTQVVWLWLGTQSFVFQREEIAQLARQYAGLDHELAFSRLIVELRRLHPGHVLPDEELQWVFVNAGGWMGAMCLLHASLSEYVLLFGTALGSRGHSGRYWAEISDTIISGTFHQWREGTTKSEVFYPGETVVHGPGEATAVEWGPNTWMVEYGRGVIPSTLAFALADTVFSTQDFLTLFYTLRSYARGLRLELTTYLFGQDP

Assay [6] concerns the target Mu-type opioid receptor (Homo sapiens, UniProt P35372). As to the kind of experiment: PDSP Secondary Binding target: OPRM1 - Compounds are tested at 10 uM concentration, plate are incubated at room temperature in the dark for 90 minutes. Reaction are stopped by vacuum filtration onto 0.3% polyethyleneimine soaked filter mats using Filtermate harvester. Scintillation cocktail is then melted onto microwave-dried filters on a hot plate and the radio activity is counted in Microbia counter.

For assay [7], the target named is 5-hydroxytryptamine receptor 5A (Homo sapiens, UniProt P47898). The experiment in a line: PDSP Secondary Binding target: HTR5A - Compounds are tested at 10 uM concentration, plate are incubated at room temperature in the dark for 90 minutes. Reaction are stopped by vacuum filtration onto 0.3% polyethyleneimine soaked filter mats using Filtermate harvester. Scintillation cocktail is then melted onto microwave-dried filters on a hot plate and the radio activity is counted in Microbia counter.
Sequence of 5-hydroxytryptamine receptor 5A (P47898 whole entry): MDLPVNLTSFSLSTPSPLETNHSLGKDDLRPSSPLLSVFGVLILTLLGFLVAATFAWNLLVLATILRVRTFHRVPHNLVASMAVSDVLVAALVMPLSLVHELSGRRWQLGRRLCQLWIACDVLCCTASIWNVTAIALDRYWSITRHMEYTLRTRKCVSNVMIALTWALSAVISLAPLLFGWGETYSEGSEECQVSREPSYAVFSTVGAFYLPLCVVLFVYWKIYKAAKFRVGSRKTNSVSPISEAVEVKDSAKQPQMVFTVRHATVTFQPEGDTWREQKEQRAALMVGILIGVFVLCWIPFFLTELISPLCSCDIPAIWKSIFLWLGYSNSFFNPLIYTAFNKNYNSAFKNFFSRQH

The target of assay [8] is D(3) dopamine receptor (Homo sapiens, UniProt P35462). As to the kind of experiment: PDSP Secondary Binding target: DRD3 - Compounds are tested at 10 uM concentration, plate are incubated at room temperature in the dark for 90 minutes. Reaction are stopped by vacuum filtration onto 0.3% polyethyleneimine soaked filter mats using Filtermate harvester. Scintillation cocktail is then melted onto microwave-dried filters on a hot plate and the radio activity is counted in Microbia counter.
Sequence of D(3) dopamine receptor (P35462 whole entry): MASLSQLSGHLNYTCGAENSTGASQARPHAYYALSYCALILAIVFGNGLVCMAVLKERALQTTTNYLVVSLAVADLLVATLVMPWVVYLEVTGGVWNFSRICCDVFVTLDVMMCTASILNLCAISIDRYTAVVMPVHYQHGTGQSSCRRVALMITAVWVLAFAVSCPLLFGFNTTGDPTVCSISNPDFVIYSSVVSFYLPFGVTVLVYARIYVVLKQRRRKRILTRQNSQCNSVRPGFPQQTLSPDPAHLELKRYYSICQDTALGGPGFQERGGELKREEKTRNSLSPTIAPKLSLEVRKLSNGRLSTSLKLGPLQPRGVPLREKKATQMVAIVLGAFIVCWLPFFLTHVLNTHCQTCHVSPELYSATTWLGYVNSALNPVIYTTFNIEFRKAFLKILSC

In assay [9] the target is T2, D(4) dopamine receptor (Homo sapiens, UniProt P21917).
T2 sequence (P21917 whole entry): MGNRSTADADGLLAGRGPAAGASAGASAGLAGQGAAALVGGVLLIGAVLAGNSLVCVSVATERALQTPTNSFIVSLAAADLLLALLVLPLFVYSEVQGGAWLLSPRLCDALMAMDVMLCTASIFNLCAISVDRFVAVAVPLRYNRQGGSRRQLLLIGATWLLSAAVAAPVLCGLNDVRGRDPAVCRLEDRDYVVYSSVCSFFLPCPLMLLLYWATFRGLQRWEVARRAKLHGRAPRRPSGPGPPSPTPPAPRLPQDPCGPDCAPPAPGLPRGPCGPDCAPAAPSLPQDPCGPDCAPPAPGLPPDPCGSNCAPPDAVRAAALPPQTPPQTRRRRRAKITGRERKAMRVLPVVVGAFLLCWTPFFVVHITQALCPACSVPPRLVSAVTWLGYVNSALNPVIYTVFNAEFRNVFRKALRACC
The experiment in a line: PDSP Secondary Binding target: DRD4 - Compounds are tested at 10 uM concentration, plate are incubated at room temperature in the dark for 90 minutes. Reaction are stopped by vacuum filtration onto 0.3% polyethyleneimine soaked filter mats using Filtermate harvester. Scintillation cocktail is then melted onto microwave-dried filters on a hot plate and the radio activity is counted in Microbia counter.

Assay [10] concerns the target Sodium-dependent dopamine transporter (Homo sapiens, UniProt Q01959). The experiment in a line: PDSP Secondary Binding target: SLC6A3 - Compounds are tested at 10 uM concentration, plate are incubated at room temperature in the dark for 90 minutes. Reaction are stopped by vacuum filtration onto 0.3% polyethyleneimine soaked filter mats using Filtermate harvester. Scintillation cocktail is then melted onto microwave-dried filters on a hot plate and the radio activity is counted in Microbia counter.

Assay [11] has as its target 5-hydroxytryptamine receptor 1D (Homo sapiens, UniProt P28221). As to the kind of experiment: PDSP Secondary Binding target: HTR1D - Compounds are tested at 10 uM concentration, plate are incubated at room temperature in the dark for 90 minutes. Reaction are stopped by vacuum filtration onto 0.3% polyethyleneimine soaked filter mats using Filtermate harvester. Scintillation cocktail is then melted onto microwave-dried filters on a hot plate and the radio activity is counted in Microbia counter.

Assay [12] deals with Sigma intracellular receptor 2 (Homo sapiens, UniProt Q5BJF2). As to the kind of experiment: PDSP Secondary Binding target: TMEM97 - Compounds are tested at 10 uM concentration, plate are incubated at room temperature in the dark for 90 minutes. Reaction are stopped by vacuum filtration onto 0.3% polyethyleneimine soaked filter mats using Filtermate harvester. Scintillation cocktail is then melted onto microwave-dried filters on a hot plate and the radio activity is counted in Microbia counter.
Sequence of Sigma intracellular receptor 2 (Q5BJF2 whole entry): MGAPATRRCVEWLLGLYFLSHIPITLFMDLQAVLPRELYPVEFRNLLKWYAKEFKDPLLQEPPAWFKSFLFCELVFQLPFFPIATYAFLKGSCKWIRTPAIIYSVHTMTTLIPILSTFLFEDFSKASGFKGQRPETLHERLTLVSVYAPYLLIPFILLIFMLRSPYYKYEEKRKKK

Assay [13] concerns the target T3, Muscarinic acetylcholine receptor M5 (Homo sapiens, UniProt P08912).
T3 sequence (P08912 whole entry): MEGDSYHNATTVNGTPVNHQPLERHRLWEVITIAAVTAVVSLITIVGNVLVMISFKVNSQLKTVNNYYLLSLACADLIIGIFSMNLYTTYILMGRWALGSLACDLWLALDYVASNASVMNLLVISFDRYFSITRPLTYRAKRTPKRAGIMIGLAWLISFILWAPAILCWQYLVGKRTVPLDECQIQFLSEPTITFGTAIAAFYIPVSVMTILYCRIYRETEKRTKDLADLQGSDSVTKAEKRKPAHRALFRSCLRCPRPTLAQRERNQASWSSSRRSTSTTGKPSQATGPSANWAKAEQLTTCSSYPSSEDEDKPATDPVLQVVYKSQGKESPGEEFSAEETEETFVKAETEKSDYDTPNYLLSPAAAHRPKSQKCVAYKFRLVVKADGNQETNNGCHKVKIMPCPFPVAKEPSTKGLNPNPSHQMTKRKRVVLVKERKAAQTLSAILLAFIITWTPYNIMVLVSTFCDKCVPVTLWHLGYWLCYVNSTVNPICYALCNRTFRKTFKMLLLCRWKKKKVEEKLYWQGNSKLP
As to the kind of experiment: PDSP Secondary Binding target: CHRM5 - Compounds are tested at 10 uM concentration, plate are incubated at room temperature in the dark for 90 minutes. Reaction are stopped by vacuum filtration onto 0.3% polyethyleneimine soaked filter mats using Filtermate harvester. Scintillation cocktail is then melted onto microwave-dried filters on a hot plate and the radio activity is counted in Microbia counter.

Broadly, the pKi is the negative decadic logarithm of the Ki, by convention in mol/L.

pKi: −log10 of the molar value. Counter-ions that a name gives are not always drawn.

Sequence of Mu-type opioid receptor (P35372 whole entry): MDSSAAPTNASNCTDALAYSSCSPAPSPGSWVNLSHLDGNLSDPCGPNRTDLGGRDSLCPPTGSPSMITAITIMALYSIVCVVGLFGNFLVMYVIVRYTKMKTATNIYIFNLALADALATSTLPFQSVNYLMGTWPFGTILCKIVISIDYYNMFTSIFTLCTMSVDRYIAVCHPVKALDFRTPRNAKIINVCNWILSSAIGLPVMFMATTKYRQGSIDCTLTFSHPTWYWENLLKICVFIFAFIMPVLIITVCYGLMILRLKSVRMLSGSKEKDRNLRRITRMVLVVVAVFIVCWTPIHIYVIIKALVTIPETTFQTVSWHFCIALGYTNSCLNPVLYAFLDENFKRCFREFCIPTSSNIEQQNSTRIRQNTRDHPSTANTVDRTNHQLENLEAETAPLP
Sequence of Sodium-dependent dopamine transporter (Q01959 whole entry): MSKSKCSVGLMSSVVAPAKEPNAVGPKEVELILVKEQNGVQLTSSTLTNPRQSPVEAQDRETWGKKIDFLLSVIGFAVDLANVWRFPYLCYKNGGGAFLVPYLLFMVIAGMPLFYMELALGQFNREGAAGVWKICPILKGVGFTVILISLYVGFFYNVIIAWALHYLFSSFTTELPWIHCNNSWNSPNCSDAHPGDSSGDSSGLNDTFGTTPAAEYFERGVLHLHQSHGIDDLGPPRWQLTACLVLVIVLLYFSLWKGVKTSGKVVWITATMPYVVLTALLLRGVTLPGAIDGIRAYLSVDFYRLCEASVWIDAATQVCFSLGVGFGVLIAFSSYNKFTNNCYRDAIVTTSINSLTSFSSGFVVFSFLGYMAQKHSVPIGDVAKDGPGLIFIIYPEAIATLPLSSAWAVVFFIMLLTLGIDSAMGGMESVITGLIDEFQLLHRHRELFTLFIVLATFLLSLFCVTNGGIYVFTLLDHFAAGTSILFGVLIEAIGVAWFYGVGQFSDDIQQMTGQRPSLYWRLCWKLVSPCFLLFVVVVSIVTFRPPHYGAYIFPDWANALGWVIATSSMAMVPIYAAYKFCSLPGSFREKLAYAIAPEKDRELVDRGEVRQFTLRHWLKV
Sequence of 5-hydroxytryptamine receptor 1D (P28221 whole entry): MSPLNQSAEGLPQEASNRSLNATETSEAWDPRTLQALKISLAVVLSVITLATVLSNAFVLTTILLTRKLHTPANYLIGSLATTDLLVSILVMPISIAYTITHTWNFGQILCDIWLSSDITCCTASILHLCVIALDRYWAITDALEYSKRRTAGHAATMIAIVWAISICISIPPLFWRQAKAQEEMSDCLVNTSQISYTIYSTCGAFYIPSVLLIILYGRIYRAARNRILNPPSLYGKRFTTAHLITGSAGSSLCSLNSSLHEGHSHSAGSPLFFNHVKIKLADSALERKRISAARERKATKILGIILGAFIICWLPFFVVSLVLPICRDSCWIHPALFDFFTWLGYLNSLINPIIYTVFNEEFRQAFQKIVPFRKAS

As for `COc1cc2c(CCNC(C)=O)c[nH]c2cc1Cl`, the pKi in [1] was less than 5.00; in [2], 6.07.
In [3], `COc1cccc(-c2c(C)n(Cc3c(F)cccc3C(F)(F)F)c(=O)n(C[C@H](NCCCC(=O)O)c3ccccc3)c2=O)c1F` [ELAGOLIX SODIUM] gave a pKi of 5.62.
Regarding `COc1cc2nc(N3CCN(C(=O)c4ccco4)CC3)nc(N)c2cc1OC` [PRAZOSIN HYDROCHLORIDE], the pKi in [4] is less than 5.00; in [5], 5.53; in assay [6], 5.75; in [7] it was 6.10.
Take `CCc1cc2c(c(CC)n1)CCC(=O)N2Cc1ccc(-c2ccccc2-c2nnn[nH]2)cc1`: the pKi was 5.20 in assay [6], 6.57 in assay [8] and 6.26 in assay [9].
For `CN(C)C(=O)C(CCN1CCC(O)(c2ccc(Cl)cc2)CC1)(c1ccccc1)c1ccccc1` [LOPERAMIDE HYDROCHLORIDE], the pKi in [10] is 5.85; in assay [5], 6.77; in [1], 5.43; in assay [11], 5.58; in assay [12] it was 7.44; in [2] it was 6.44. In [9], this molecule had a pKi of 5.84.
On to `O=C1N/C(=N/c2ccccc2F)S/C1=C\c1ccc(C(=O)O)cc1`, for which the pKi in [6] was less than 5.00; in assay [13] it was 5.28; in [9], less than 5.00.
As for `CC(C)NCC(O)COc1cccc2[nH]ccc12` (centres undefined) [PINDOLOL], the values for the pKi in assay [12], in assay [7] and in [9] were 5.48, 5.15 and 5.78, respectively.
In the case of `CCc1cc(C(C)=O)c(O)cc1OCCCCCC(C)(C)c1nn[nH]n1` [LY-255283], the pKi is 5.24 in assay [5] and 5.57 in assay [2].
With `CCCCN(CCCC)C(=O)CN1C[C@@H](c2ccc3c(c2)OCO3)[C@H](C(=O)O)[C@H]1c1ccc(OC)cc1`, the pKi was 6.74 in assay [4], 5.55 in assay [5] and 5.72 in assay [9].
Regarding `O=C(Cc1ccc(Cl)c(Cl)c1)N1CCCC[C@H]1CN1CCCC1`, the pKi in [10] is 5.31; in [5], 7.93; in assay [3], 9.23; in assay [12] it was 7.43; in assay [9] it was 5.69.
For the molecule `c1ccc(N2CCN(Cc3nc4ccccc4[nH]3)CC2)nc1`, the pKi is 5.65 in assay [5], 5.67 in assay [3] and 6.70 in [9].
Regarding `C[C@H](NC[C@H](O)CP(=O)(O)CC1CCCCC1)c1ccc(Cl)c(Cl)c1`, the pKi in assay [10] is 6.28; in assay [6], 5.89; in [3], 5.95.
`Cc1ccccc1N1CCN(S(=O)(=O)C[C@]23CC[C@H](C[C@@H]2NC(=O)[C@@H](N)CCS(C)(=O)=O)C3(C)C)CC1`: the pKi in [5] is 7.15; in [3] it was 8.39; in [12], 6.51.
As for `Cc1c(C(=O)NC2CCCCC2)sc2nc3ccc(N)cc3n12`, the pKi was 6.04 in assay [5] and 6.18 in assay [2].
